Series [1] can be described thus: PK experiments in rats after oral dosing, plasma compound (I). The format is in vivo, Han Wistar rats. The following applies: Wistar rats; for Observed metabolite, in vivo PK study after oral dosing (rats): plasma. The procedure: Plasma was placed on water-ice following collection. Final storage at approximately −70° C.
Mobile phase B: Acetonitrile. […] Flow rate 0.5 mL/min.
The rats had unrestricted access to the diet.
Mobile phase B: Acetonitrile+0.2% formic acid. […] Flow rate 0.3 mL/min.
Dosing and blood sampling for compound (Ic), compound (2), compound (3), compound (8), and compound (9): Han Wistar rats were supplied by Envigo, UK. […] The rats received a standard laboratory diet Teklad 2014C. The rats had unrestricted access to the diet. […] Rats were given 494 μg/kg (Ic), 392 μg/kg compound (8), 426 μg/kg compound (9), 359 μg/kg compound (3) and 551 μg/kg compound (2).

The conditions of series [2]: various animal models relevant for Parkinson's Disease; cited from earlier work.
The conditions of series [3]: rats; cited from earlier work.
For series [4], the target named is T1, human 5-HT2B receptor (Homo sapiens, UniProt P41595).
T1 construct: host or cells: CHO cells
The experiment in a line: 5-HT2B agonist activity assay (IP1 production, HTRF, transfected CHO cells). The class given is cell-based. The procedure: Evaluation of the agonist activity of compounds (I), (Ia), (Ib), (Ic), compound (2), compound (3), compound (6), compound (8), and compound (9) at the human 5-HT2B receptor was performed by Eurofins/Cerep (France) measuring the compound effects on inositol monophosphate (IP1) production using the HTRF detection method. Briefly, the human 5-HT2B receptor was expressed in transfected CHO cells. The cells were suspended in a buffer containing 10 mM Hepes/NaOH (pH 7.4), 4.2 mM KCl, 146 mM NaCl, 1 mM CaCl2, 0.5 mM MgCl2, 5.5 mM glucose and 50 mM LiCl, then distributed in microplates at a density of 4100 cells/well and incubated for 30 minutes at 37° C. in the presence of buffer (basal control), test compound or reference agonist. For stimulated control measurement, separate assay wells contained 1 μM 5-HT. Following incubation, the cells were lysed and the fluorescence acceptor (fluorophen D2-labeled IP1) and fluorescence donor (anti-IP1 antibody labeled with europium cryptate) were added. After 60 minutes at room temperature, the fluorescence transfer was measured at lambda(Ex) 337 nm and lambda(Em) 620 and 665 nm using a microplate reader (Rubystar, BMG). The IP1 concentration was determined by dividing the signal measured at 665 nm by that measured at 620 nm (ratio). The results were expressed as a percent of the control response to 1 μM 5-HT. The standard reference agonist was 5-HT, which was tested in each experiment at several concentrations to generate a concentration-response curve from which its EC50 value is calculated as described above for dopamine functional assays.
(Time-resolved FRET reads energy transfer from a long-lived donor to a nearby acceptor.)

The conditions of series [5]: human hepatocytes; cited from earlier work.
The conditions of series [6]: rat hepatocytes; cited from earlier work.
The conditions of series [7]: PD patients, intravenous (IV); cited from earlier work.
For series [8] the following is noted: man, oral dosing, extensive hepatic first-pass metabolism; cited from earlier work.
A short description of series [9]: Conversion of compounds in human plasma. The format is in vitro ADME. The note with it: for Observed metabolite, incubation in human plasma: 1 μM test compound, 37° C., 0-6 hours. The procedure:
Frozen human plasma was thawed and then centrifuged at 3200×g for 5 minutes to remove debris. The pH value of the supernatant was then measured and adjusted to 7.4±0.1 by adding 1% phosphoric acid or 1 N sodium hydroxide. 2 μL of dosing solution (50 μM for test compounds and 100 μM for positive control (propantheline bromide)) was mixed with 98 μL of blank plasma to achieve 1 μM test compound and 2 μM positive control of final concentration. The mixture was incubated, and samples were withdrawn from the incubations at the pre-determined time points of 0, 0.5, 1, 2, 4 and 6 hours (in duplicate) at 37° C. in water bath. At each corresponding time point 10 μL inhibitor and 20 μL ascorbic acid and 2 μL formic acid (20%) are added, and then added 400 μL of “stop solution” (200 ng/mL tolbutamide plus 200 ng/mL labetalol in 50% ACN/MeOH) to precipitate protein. The substance was mixed thoroughly and thereafter centrifugated at 4,000 rpm for 20 minutes. Then an aliquot of supernatant (50 μL) was transferred from each well to a sample plate and mixed with 100 μL ultrapure water. The plate was shaked at 800 rpm for about 10 minutes before submitting to LC-MS/MS analysis.
Instrumentation used for analysis of plasma and hepatocyte incubation samples:
Mass spectrometer (LC-MS/MS) Shimadzu LC 20-AD Shimadzu UHPLC API 4000. Analytical column ACQUITY UPLC® BEH Phenyl 1.7 μm 2.1×50 mm. Mobile phase A: 0.1% Formic Acid in water. Mobile phase B: 0.1% formic acid in acetonitrile. […] Flow rate 0.7 mL/min.

A short description of series [10]: Conversion of compounds in human hepatocytes. The class given is in vitro ADME. The following applies: 1 μM compound, 37° C. Here is the method: Incubations were conducted in 96-well plates at 1 μM compound concentration in duplicate. The hepatocyte cell concentration was 0.5×10^6 cells/mL used for final incubation at 37° C. in an incubator of 5% CO2 95% relative humidity. The medium control samples were included at 0 and 60 minutes in the absence of cells. The total organic concentration was 1% (DMSO 0.1%) in the final incubation. The controls, (7-ethoxycoumarin and 7-hydroxycoumarin) was incubated parallel at […]. 2 μL of dosing solution (50 μM for test compounds and 100 μM for positive control) was mixed with 98 μL of 100 mM PBS to achieve 1 μM test compound and 2 μM positive control of final concentration. The mixture was incubated, and samples were withdrawn from the incubations at pre-determined time points of 0, 0.5, 1, 2, 4 and 6 hours (in duplicate) at 37° C. in water bath. To each sample, 10 μL inhibitor and 20 μL ascorbic acid and 2 μL formic acid (20%) were added followed by 400 μL of stop solution (200 ng/mL tolbutamide plus 200 ng/mL labetalol in 50% ACN/MeOH). The substance was mixed thoroughly and thereafter centrifuged at 4,000 rpm for 20 minutes. An aliquot of supernatant (50 μL) from each well were transferred to a sample plate and mixed with 100 μL ultrapure water. The plate was shaked at 800 rpm for about 10 minutes before submitting to LC-MS/MS analysis. […]

The conditions of series [11]: rats; cited from earlier work. The source holds these as a separate data set.
Where [12] appears, read: percent of the control response to 1 μM 5-HT.

Read-outs that look alike come from different tables or passages of the source.

T1 sequence (P41595 whole entry): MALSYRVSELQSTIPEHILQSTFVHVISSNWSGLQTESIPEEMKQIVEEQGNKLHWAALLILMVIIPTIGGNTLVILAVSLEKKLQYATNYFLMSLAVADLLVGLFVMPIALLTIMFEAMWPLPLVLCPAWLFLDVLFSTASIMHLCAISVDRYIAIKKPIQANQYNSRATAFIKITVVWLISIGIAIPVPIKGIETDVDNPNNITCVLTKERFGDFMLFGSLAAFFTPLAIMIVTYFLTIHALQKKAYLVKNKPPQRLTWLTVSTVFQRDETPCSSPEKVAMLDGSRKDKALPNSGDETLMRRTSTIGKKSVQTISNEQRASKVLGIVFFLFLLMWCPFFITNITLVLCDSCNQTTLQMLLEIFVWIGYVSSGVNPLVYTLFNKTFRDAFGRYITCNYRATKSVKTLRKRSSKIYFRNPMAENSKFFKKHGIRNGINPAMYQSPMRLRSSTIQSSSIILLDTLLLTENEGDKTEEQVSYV

Turning to `CCCN1CCC[C@@H]2CC3=C(CCCC3=O)C[C@H]21` [(Ia), reference compound], the “Plasma concentration profile of compound (I) after oral dosing, in words” value (shortened to “Plasma concentration profile of compound”) in series [1] was “early and high peak plasma concentrations of compound (I)”. Further, the “In vivo pharmacology, efficacy” value in [2] is “effective”. Besides, in series [3], the “Conversion to the active compound (I)” value is “converted to the active compound (I)”. Also, the “5-HT2B % effect @ 30 μM” value in series [4] (30 μM, percent of the control response to 1 μM 5-HT) was 58%.

Consider `CCCN1CCC[C@@H]2Cc3c(ccc4c3OCO4)C[C@H]21` [(Ib), (6aR,10aR)-7-propyl-6,6a,7,8,9,10,10a,11-octahydro-[1,3]dioxolo[4′,5′:5,6]benzo[1,2-g]quinoline], for which the “Plasma concentration profile of compound” value in [1] was “early and high peak plasma concentrations of compound (I)”. In addition, the “In vivo pharmacology, efficacy” value in series [2] is recorded as “effective”. The “Conversion to compound (I)” value in [5] and in series [6] was “demonstrated” each time. Also, the “5-HT2B receptor agonism, in words” value in [4] is “agonist of the 5-HT2B receptor”.

Turning to `CCCN1CCC[C@@H]2Cc3c(ccc(OC(=O)C(C)(C)C)c3OC(=O)C(C)(C)C)C[C@H]21` [(Ic), reference compound], in [1], the “Plasma concentration profile of compound” value is given as “extremely low”. Further, the “5-HT2B % effect @ 10 μM” value in series [4] (setting [12]) was −5% @ 10 μM.

As to `CCCc1cc2c(s1)CN[C@@H]1CCc3cc(OC(C)=O)c(OC(C)=O)cc3[C@@H]21` [Adrogolide], the Antiparkinson efficacy result in series [7] is recorded as “comparable to that of L-DOPA”. The Oral bioavailability in series [8] is about 4%.

On to `CCCN1CCC[C@@H]2Cc3c(ccc(OCc4ccccc4)c3O)C[C@H]21` [Compound (2), (4aR,10aR)-7-(benzyloxy)-1-propyl-1,2,3,4,4a,5,10,10a-octahydrobenzo[g]quinolin-6-ol], for which the “Observed metabolite, in vivo PK study after oral dosing (rats)” value (from here on “Observed metabolite, in vivo PK study”) in series [1] is recorded as “Compound (1)”. Besides, in [9], the “Observed metabolite, incubation in human plasma” value is recorded as “Compound (1)”. For the same molecule, the “Observed metabolite, incubation in human hepatocytes” value in [10] was “Compound (1)”. Besides, in [4] (setting [12]), the “5-HT2B % effect @ 10 μM” value worked out at 30% @ 10 μM.

For `CCCN1CCC[C@@H]2Cc3c(ccc(OC)c3O)C[C@H]21` [Compound (3), (4aR,10aR)-7-methoxy-1-propyl-1,2,3,4,4a,5,10,10a-octahydrobenzo[g]quinolin-6-ol], the “Observed metabolite, in vivo PK study” value in [1] is “Compound (1)”. The “Observed metabolite, incubation in human hepatocytes” value in [10] is listed as “Compound (1)”. Further, in series [4] (setting [12]), the “5-HT2B % effect @ 10 μM” value was found to be 27% @ 10 μM.

For `CCCN1CCC[C@@H]2Cc3c(ccc(OP(=O)(O)O)c3OP(=O)(O)O)C[C@H]21` [Compound (6), (4aR,10aR)-1-propyl-1,2,3,4,4a,5,10,10a-octahydrobenzo[g]quinoline-6,7-diyl bis(dihydrogen phosphate)], the “Observed metabolite, incubation in human plasma” value in series [9] is given as “Compound (8)”; in series [9] (listed as compound (6)), “compound (8) was formed”. Also, the “Appearance of compound (I) in incubation” value in [9] (human plasma, in words) is “no appearance of compound (I) was observed”. For the same molecule, the “5-HT2B % effect @ 10 μM” value in series [4] (setting [12]) worked out at 4% @ 10 μM.

For the molecule `CCCN1CCC[C@@H]2Cc3c(ccc(O)c3OP(=O)(O)O)C[C@H]21` [Compound (8), (4aR,10aR)-7-hydroxy-1-propyl-1,2,3,4,4a,5,10,10a-octahydrobenzo[g]quinolin-6-yl dihydrogen phosphate], the “Observed metabolite, in vivo PK study” value in [1] is “Compound (1)”. Moreover, the “Observed metabolite, incubation in human plasma” value in series [9] is “Compound (1)”. The “5-HT2B % effect @ 1 μM” value in series [4] (1 μM, percent of the control response to 1 μM 5-HT) amounted to 0% @ 1 μM.

On to `CCC[N@+]1(COP(=O)([O-])O)CCC[C@@H]2Cc3c(ccc(O)c3O)C[C@H]21` [Compound (9), ((1S,4aR,10aR)-6,7-dihydroxy-1-propyl-1,2,3,4,4a,5,10,10a-octahydrobenzo[g]quinolin-1-ium-1-yl)methyl hydrogen phosphate], for which the “Observed metabolite, in vivo PK study” value in series [1] is recorded as “Compound (1)”. In series [9], the “Observed metabolite, incubation in human plasma” value was “Compound (1)”. In addition, the “5-HT2B % effect @ 10 μM” value in [4] (setting [12]) is on record as −1% @ 10 μM.

Turning to `CCCN1CCC[C@@H]2Cc3c(ccc(O)c3O)C[C@H]21` [compound (I), (4aR,10aR)-1-n-Propyl-1,2,3,4,4a,5,10,10a-octahydro-benzo[g]quinoline-6,7-diol], the “In vivo pharmacology, efficacy” value in series [2] is listed as “effective”. Further, in [9] (human plasma, in words), the “Half-life in the plasma assay” value is listed as “short half-life”. In addition, the “Oral bioavailability, in words” value in [11] is listed as “low oral bioavailability”.

Values taken from patent US12391650B2, “Catecholamine prodrugs for use in the treatment of Parkinson's disease” (H. Lundbeck A/S, priority 2019, dated 2025).
